Target: T1, N-type calcium channel (NTCC) (Homo sapiens, UniProt Q00975)
T1 construct: host or cells: IMR32 cells differentiated with dibutyryl cAMP and bromodeoxyuridine
Assay: FLIPR calcium mobilization assay for N-type calcium channel (differentiated IMR32 cells)
Type: cell-based
Conditions: about 1.0 μM or less; calcium mobilization and/or electrophysiological assay
Method: Cell maintenance and differentiation. Unless noted otherwise, cell culture reagents were purchased from Mediatech of Hemdon, Md. IMR32 cells (American Type Culture Collection, ATCC, Manassas, Va.) were routinely cultured in growth medium consisting of minimum essential medium containing 10% fetal bovine serum (FBS, Hyclone, Logan, Utah), 100 U/mL penicillin, 100 μg/mL streptomycin, 2 mM L-glutamine, 1 mM sodium pyruvate, and 1× MEM non-essential amino acids. 80-90% confluent flasks of cells were differentiated using the following differentiation medium: Growth medium plus 1 mM dibutyryl cyclic AMP (Sigma, St. Louis, Mo.), and 2.5 μM bromodeoxyuridine (Sigma). Cells were differentiated for 8 days by replacing differentiation medium every 2-3 days.
FLIPR Calcium Mobilization Assay for N-type Calcium Channel. One day prior to performing this assay, differentiated IMR32 cells were treated with 1× CellStripper, and seeded on poly-D-lysine-coated 96-well clear-bottom black plates (Becton Dickinson, Franklin Lakes, N.J.) at 200,000 cells/well. On the day of the assay, the cell plates were washed with IMR32 buffer (127 mM NaCl, 1 mM KCl, 2 mM MgCl2, 700 μM NaH2PO4, 5 mM CaCl2, 5 mM NaHCO3, 8 mM HEPES, 10 mM glucose, pH 7.4), then pre-stimulated with KCl and loaded as follows: 0.05 mL of IMR32 buffer, 0.05 mL of each compound tested diluted in IMR32 buffer containing 20 μM nitrendipine (Sigma), and 0.1 mL KCl dissolved in IMR32 buffer, plus Fluo-4 were added (3 μM final concentration, Molecular Probes, Eugene, Oreg.). Final test compound concentrations ranged from about 846 pM to about 17 μM, final nitrendipine concentration was 5 μM, and final KCl concentration was 90 mM. After 1 hour, the cells were washed twice with 0.05 mL of each compound tested in nitrendipine-containing IMR32 buffer (no KCl or Fluo-4), and then replaced with 0.1 mL of each compound tested in nitrendipine-containing IMR32 buffer. Plates were then transferred to a Fluorimetric imaging Plate Reader (FLIPR^96, Molecular Devices, Inc., Sunnyvale, Calif.) for assay. The FLIPR measured basal Fluo-4 fluorescence for 315 seconds (i.e., 5 minutes and 15 seconds), then added 0.1 mL KCl agonist dissolved in IMR32 buffer and measured fluorescence for another 45 seconds. Final test compound concentrations on the cells after FLIPR read ranged from about 846 pM to about 17 μM, final nitrendipine concentration was 5 μM, and final KCl concentration was 90 mM. Data were collected over the entire time course and analyzed using Excel, Graph Pad Prism (version 3.02, Graph Pad, San Diego, Calif.), or an in-house non-linear regression analysis software.

T1 sequence (Q00975 whole entry): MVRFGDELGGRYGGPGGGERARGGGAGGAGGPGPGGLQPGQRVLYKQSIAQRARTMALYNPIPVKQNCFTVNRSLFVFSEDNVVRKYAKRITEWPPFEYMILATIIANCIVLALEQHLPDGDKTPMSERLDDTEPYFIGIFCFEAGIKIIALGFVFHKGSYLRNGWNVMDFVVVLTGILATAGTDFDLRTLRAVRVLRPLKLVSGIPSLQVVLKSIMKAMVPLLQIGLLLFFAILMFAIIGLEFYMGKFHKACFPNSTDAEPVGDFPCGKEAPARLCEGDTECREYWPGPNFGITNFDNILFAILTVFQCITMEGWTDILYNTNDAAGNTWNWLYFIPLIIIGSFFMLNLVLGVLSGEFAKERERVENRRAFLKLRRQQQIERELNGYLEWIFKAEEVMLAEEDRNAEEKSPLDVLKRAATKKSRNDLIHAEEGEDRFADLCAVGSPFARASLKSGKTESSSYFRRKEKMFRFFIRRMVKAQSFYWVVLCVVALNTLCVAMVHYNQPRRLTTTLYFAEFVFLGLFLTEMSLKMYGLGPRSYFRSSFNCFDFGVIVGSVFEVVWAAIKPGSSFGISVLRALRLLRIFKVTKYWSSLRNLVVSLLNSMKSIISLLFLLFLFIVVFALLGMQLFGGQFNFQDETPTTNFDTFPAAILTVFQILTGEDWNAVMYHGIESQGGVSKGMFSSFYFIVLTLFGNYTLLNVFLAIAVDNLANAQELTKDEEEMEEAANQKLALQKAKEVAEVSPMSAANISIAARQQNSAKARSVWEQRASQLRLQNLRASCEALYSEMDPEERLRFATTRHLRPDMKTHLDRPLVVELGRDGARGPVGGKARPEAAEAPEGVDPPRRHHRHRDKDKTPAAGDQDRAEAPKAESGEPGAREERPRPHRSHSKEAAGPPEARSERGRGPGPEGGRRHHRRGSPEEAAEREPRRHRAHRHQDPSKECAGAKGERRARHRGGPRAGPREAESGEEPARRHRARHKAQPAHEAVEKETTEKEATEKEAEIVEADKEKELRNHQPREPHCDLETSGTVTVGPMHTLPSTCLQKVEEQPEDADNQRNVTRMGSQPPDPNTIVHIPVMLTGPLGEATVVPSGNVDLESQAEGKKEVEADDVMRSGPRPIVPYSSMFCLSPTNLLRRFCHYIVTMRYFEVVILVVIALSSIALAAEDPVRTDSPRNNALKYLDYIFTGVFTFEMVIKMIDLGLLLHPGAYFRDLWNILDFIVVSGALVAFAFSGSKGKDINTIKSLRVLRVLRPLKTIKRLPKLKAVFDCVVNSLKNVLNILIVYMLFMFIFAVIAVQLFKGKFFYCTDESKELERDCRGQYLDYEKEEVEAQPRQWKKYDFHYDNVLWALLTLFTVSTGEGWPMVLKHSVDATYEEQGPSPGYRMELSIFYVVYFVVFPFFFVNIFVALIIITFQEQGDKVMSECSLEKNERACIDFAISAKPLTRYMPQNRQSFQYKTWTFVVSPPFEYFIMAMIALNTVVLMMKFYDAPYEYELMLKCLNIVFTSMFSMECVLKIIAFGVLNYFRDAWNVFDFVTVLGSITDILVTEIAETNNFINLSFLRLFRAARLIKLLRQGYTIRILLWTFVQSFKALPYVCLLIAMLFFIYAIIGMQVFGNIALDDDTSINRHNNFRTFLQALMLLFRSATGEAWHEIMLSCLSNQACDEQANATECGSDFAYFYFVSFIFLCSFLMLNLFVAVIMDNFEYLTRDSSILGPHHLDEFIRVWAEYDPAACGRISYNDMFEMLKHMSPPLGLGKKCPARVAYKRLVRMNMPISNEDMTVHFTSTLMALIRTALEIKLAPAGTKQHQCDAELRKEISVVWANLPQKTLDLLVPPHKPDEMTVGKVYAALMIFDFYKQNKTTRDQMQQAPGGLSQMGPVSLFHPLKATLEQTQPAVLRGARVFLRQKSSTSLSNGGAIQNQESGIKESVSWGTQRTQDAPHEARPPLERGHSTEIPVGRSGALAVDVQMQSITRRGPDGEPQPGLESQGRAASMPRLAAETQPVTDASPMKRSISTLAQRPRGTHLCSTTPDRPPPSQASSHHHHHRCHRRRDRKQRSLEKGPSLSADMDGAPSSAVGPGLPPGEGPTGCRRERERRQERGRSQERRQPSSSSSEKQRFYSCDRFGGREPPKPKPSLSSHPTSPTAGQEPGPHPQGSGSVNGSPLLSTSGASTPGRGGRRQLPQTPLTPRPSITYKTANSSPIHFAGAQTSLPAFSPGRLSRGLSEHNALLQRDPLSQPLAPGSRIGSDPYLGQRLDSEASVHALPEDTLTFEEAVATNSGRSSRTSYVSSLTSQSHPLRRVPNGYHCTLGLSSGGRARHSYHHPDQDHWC

Row | Compound | IC50 [nM]
1 | O=S(=O)(c1ccc(Cl)cc1Cl)N1CCC(=NOC(c2ccc(F)cc2)c2ccc(F)cc2)CC1 [Example 228, 1-(2,4-Dichlorophenylsulfonyl)piperidin-4-one O-bis(4-fluorophenyl)methyl oxime] | ≤ 1000
2 | N#Cc1ccccc1S(=O)(=O)N1CCC(=NOC(c2ccc(F)cc2)c2ccc(F)cc2)CC1 [Example 229, 2-(4-(Bis(4-fluorophenyl)methoxyimino)piperidin-1-ylsulfonyl)benzonitrile] | ≤ 1000
3 | CCCCc1ccc(S(=O)(=O)N2CCC(=NOC(c3ccc(F)cc3)c3ccc(F)cc3)CC2)cc1 [Example 231, 1-(4-Butylphenylsulfonyl)piperidin-4-one O-bis(4-fluorophenyl)methyl oxime] | ≤ 1000
4 | O=S(=O)(c1ccc(OC(F)F)cc1)N1CCC(=NOC(c2ccc(F)cc2)c2ccc(F)cc2)CC1 [Example 232, 1-(4-(Difluoromethoxy)phenylsulfonyl)piperidin-4-one O-bis(4-fluorophenyl)methyl oxime] | ≤ 1000
5 | CN1CCOc2cc(S(=O)(=O)N3CCC(=NOC(c4ccc(F)cc4)c4ccc(F)cc4)CC3)ccc21 [Example 237, 1-(4-Methyl-3,4-dihydro-2H-benzo[b][1,4]oxazin-7-ylsulfonyl)piperidin-4-one O-bis(4-fluorophenyl)methyl oxime] | ≤ 1000
6 | COc1ccccc1S(=O)(=O)N1CCC(=NOC(c2ccc(F)cc2)c2ccc(F)cc2)CC1 [Example 238, 1-(2-Methoxyphenylsulfonyl)piperidin-4-one O-bis(4-fluorophenyl)methyl oxime] | ≤ 1000
7 | O=S(=O)(c1ccc(F)c(F)c1)N1CCC(=NOC(c2ccc(F)cc2)c2ccc(F)cc2)CC1 [Example 243, 1-(3,4-Difluorophenylsulfonyl)piperidin-4-one O-bis(4-fluorophenyl)methyl oxime] | ≤ 1000
8 | O=S(=O)(c1cc(F)cc(F)c1)N1CCC(=NOC(c2ccc(F)cc2)c2ccc(F)cc2)CC1 [Example 244, 1-(3,5-Difluorophenylsulfonyl)piperidin-4-one O-bis(4-fluorophenyl)methyl oxime] | ≤ 1000
9 | O=S(=O)(c1cccc2cccnc12)N1CCC(=NOC(c2ccc(F)cc2)c2ccc(F)cc2)CC1 [Example 251, 1-(Quinolin-8-ylsulfonyl)piperidin-4-one O-bis(4-fluorophenyl)methyl oxime] | ≤ 1000
10 | O=S(=O)(c1cccs1)N1CCC(=NOC(c2ccc(F)cc2)c2ccc(F)cc2)CC1 [Example 252, 1-(Thiophen-2-ylsulfonyl)piperidin-4-one O-bis(4-fluorophenyl)methyl oxime] | ≤ 1000
11 | N#Cc1ccc(S(=O)(=O)N2CCC(=NOC(c3ccc(F)cc3)c3ccc(F)cc3)CC2)cc1 [Example 256, 4-(4-(Bis(4-fluorophenyl)methoxyimino)piperidin-1-ylsulfonyl)benzonitrile] | ≤ 1000
12 | O=S(=O)(c1ccc(OC(F)(F)F)cc1)N1CCC(=NOC[C@@H]2Cc3ccccc3N2)CC1 [Example 263, (S)-1-(4-(trifluoromethoxy)phenylsulfonyl)piperidin-4-one O-indolin-2-ylmethyl oxime] | ≤ 1000
13 | O=S(=O)(c1ccc(OC(F)(F)F)cc1)N1CCC(=NOCC2Oc3ccccc3O2)CC1 [Example 265, 1-(4-(Trifluoromethoxy)phenylsulfonyl)piperidin-4-one O-benzo[d][1,3]dioxol-2-ylmethyl oxime] | ≤ 1000
14 | N#Cc1cccc(S(=O)(=O)N2CCC(=NOC(c3ccc(F)cc3)c3ccc(F)cc3)CC2)c1 [Example 267, 3-(4-(Bis(4-fluorophenyl)methoxyimino)piperidin-1-ylsulfonyl)benzonitrile] | ≤ 1000
15 | COc1ccc(S(=O)(=O)N2CCC(=NOC(c3ccc(F)cc3)c3ccc(F)cc3)CC2)cc1OC [Example 268, 1-(3,4-Dimethoxyphenylsulfonyl)piperidin-4-one O-bis(4-fluorophenyl)methyl oxime] | ≤ 1000
16 | N#Cc1cccc(C(ON=C2CCN(S(=O)(=O)c3ccc(OC(F)(F)F)cc3)CC2)c2ccncc2)c1 (stereo not shown) [Example 269, 3-(Pyridin-4-yl(1-(4-(trifluoromethoxy)phenylsulfonyl)piperidin-4-ylideneaminooxy)methyl)benzonitrile] | ≤ 1000

Row | Compound | IC50 [nM]
17 | N#Cc1cccc(C(ON=C2CCN(S(=O)(=O)c3ccc(OC(F)(F)F)cc3)CC2)c2cccnc2)c1 (stereo not shown) [Example 270, 3-(Pyridin-3-yl(1-(4-(trifluoromethoxy)phenylsulfonyl)piperidin-4-ylideneaminooxy)methyl)benzonitrile] | ≤ 1000
18 | N#Cc1cccc(C(ON=C2CCN(S(=O)(=O)c3ccc(OC(F)(F)F)cc3)CC2)c2ccccn2)c1 (stereo not shown) [Example 271, 3-(Pyridin-2-yl(1-(4-(trifluoromethoxy)phenylsulfonyl)piperidin-4-ylideneaminooxy)methyl)benzonitrile] | ≤ 1000
19 | COCC(ON=C1CCN(S(=O)(=O)c2ccc(OC(F)(F)F)cc2)CC1)c1cccc(C#N)c1 (stereo not shown) [Example 273, 3-(2-Methoxy-1-(1-(4-(trifluoromethoxy)phenylsulfonyl)piperidin-4-ylideneaminooxy)ethyl)benzonitrile] | ≤ 1000
20 | N#Cc1cccc(C(ON=C2CCN(S(=O)(=O)c3ccc(NC4CC4)nc3)CC2)C2CC2)c1 (stereo not shown) [Example 274, 3-(Cyclopropyl(1-(6-(cyclopropylamino)pyridin-3-ylsulfonyl)piperidin-4-ylideneaminooxy)methyl)benzonitrile] | ≤ 1000
21 | N#Cc1cccc(C(ON=C2CCN(S(=O)(=O)c3ccc(NC4CCCC4)nc3)CC2)C2CC2)c1 (stereo not shown) [Example 275, 3-((1-(6-(Cyclopentylamino)pyridin-3-ylsulfonyl)piperidin-4-ylideneaminooxy)(cyclopropyl)methyl)benzonitrile] | ≤ 1000
22 | CC(ON=C1CCN(S(=O)(=O)c2cccc(C(F)(F)F)c2)CC1)c1ccccc1 (stereo not shown) [Example 276, 1-(3-(Trifluoromethyl)phenylsulfonyl)piperidin-4-one O-1-phenylethyl oxime] | ≤ 1000
23 | N#Cc1cccc(C(ON=C2CCN(S(=O)(=O)c3ccc(C#N)nc3)CC2)C2CC2)c1 (stereo not shown) [Example 278, 5-(4-((3-Cyanophenyl)(cyclopropyl)methoxyimino)piperidin-1-ylsulfonyl)picolinonitrile] | ≤ 1000
24 | N#Cc1cccc(CON=C2CCN(S(=O)(=O)c3ccc(C(F)(F)F)cc3)CC2)c1 [Example 280, 3-((1-(4-(Trifluoromethyl)phenylsulfonyl)piperidin-4-ylideneaminooxy)methyl)benzonitrile] | ≤ 1000
25 | N#Cc1cccc(CON=C2CCN(S(=O)(=O)c3ccc(OCCF)cc3)CC2)c1 [Example 281, 3-((1-(4-(2-Fluoroethoxy)phenylsulfonyl)piperidin-4-ylideneaminooxy)methyl)benzonitrile] | ≤ 1000
26 | N#Cc1cccc(CON=C2CCN(S(=O)(=O)c3cccc(C#N)c3)CC2)c1 [Example 282, 3-(4-(3-Cyanobenzyloxyimino)piperidin-1-ylsulfonyl)benzonitrile] | ≤ 1000
27 | N#Cc1cccc(S(=O)(=O)N2CCC(=NOCc3cccc(C(F)(F)F)c3)CC2)c1 [Example 284, 3-(4-(3-(Trifluoromethyl)benzyloxyimino)piperidin-1-ylsulfonyl)benzonitrile] | ≤ 1000
28 | O=S(=O)(c1cccc(C(F)(F)F)c1)N1CCC(=NOC(c2ccc(F)cc2)c2ccc(F)cc2)CC1 [Example 285, 1-(3-(Trifluoromethyl)phenylsulfonyl)piperidin-4-one O-bis(4-fluorophenyl)methyl oxime] | ≤ 1000
29 | COC(=O)c1cccc(S(=O)(=O)N2CCC(=NOC(c3ccc(F)cc3)c3ccc(F)cc3)CC2)c1 [Example 286, Methyl 3-(4-(bis(4-fluorophenyl)methoxyimino)piperidin-1-ylsulfonyl)benzoate] | ≤ 1000
30 | O=S(=O)(c1ccsc1)N1CCC(=NOC(c2ccc(F)cc2)c2ccc(F)cc2)CC1 [Example 287, 1-(Thiophen-3-ylsulfonyl)piperidin-4-one O-bis(4-fluorophenyl)methyl oxime] | ≤ 1000
31 | O=S(=O)(c1ccccn1)N1CCC(=NOC(c2ccc(F)cc2)c2ccc(F)cc2)CC1 [Example 288, 1-(Pyridin-2-ylsulfonyl)piperidin-4-one O-bis(4-fluorophenyl)methyl oxime] | ≤ 1000

Reference: patent publication US20090298878A1, “OXIME COMPOUNDS AND THE USE THEREOF” (priority 2006, published 2009)
